{"source": "patent US12318503B2", "about": "“Functional amyloid hydrogels and applications thereof” (Indian Institute of Technology Bombay, priority 2019, dated 2025)", "key": {"[1]": {"assay": "MTT cytotoxicity assay of cells cultured on the hydrogels", "format": "cell-based", "details": "human, hydrogel 5 mg/ml peptide, 24 hours culture, read-out: cell viability", "procedure": "To determine whether the functional amyloid hydrogel is non-toxic in nature, MTT (3-[4,5-dimethylthiazol-2-yl]-2,5 diphenyl tetrazolium bromide) assay was performed. The amyloid hydrogels were casted at a concentration of 5 mg/ml for each peptide and neuroblastoma, SH-SY5Y cells at a density of 10^4 were seeded and cultured on the hydrogels for 24 hours. The MTT reagent (0.5 mg/ml final concentration) was added to the cells after 24 hrs of culture and the cells were further incubated for 4 h. Finally, 100 μl of 50% N, N-dimethylformamide/20% sodium dodecyl sulfate solution was added, and the mixture was incubated overnight. The absorption was then measured at 560 nm with an automatic microtiter plate reader (Thermo Fisher Scientific, Waltham, MA, USA). FIG. 9 depicts the percentage of cell viability."}, "SH-SY5Y cells": {"test_system": "SH-SY5Y cells", "assay": "Differentiation of cells on RA encapsulated hydrogels", "format": "cell-based", "details": "RA released from RA encapsulated hydrogels", "procedure": "MDA-MB-231, breast cancer cell line was used for determining the efficacy of DOX release. To do so, MDA-MB-231 cells were grown on the DOX encapsulated hydrogels at a density of 2×10000 and cultured in complete DMEM media for 24 hrs. After 24 hrs, the cell morphology was imaged and the viability was then quantified using 3-(4,5-dimethylthiazol-2-yl)-2,5-diphenyl tetrazolium bromide (MTT) assay. FIG. 22A phase contrast images of MDA-MB-231 cells treated with DOX encapsulated hydrogels. […] For FACS analysis, MDAMB-231 cells were seeded on the hydrogel in the density 50,000 cells/well and allowed to grow for 24 hrs. Following the incubation, the cells were trypsinized and harvested in an eppendorf. The cell pellet was obtained by centrifugation and was resuspended in binding buffer. The percentage of apoptotic cells were measured by Annexin-PI staining method. 2 μl each of Annexin and PI was added to the resuspended cells and incubated for 5 mins before acquiring the results using FACS. […] After 48 hrs, the morphology of these cells was analyzed by phase contrast images (FIG. 23A) and the cell shape was quantified by circularity using Image J software (FIG. 23C).\nThe SH-SY5Y cells grown on hydrogel were immunostained with β-III tubulin (β-IIIT), a neuron specific marker to determine the efficacy of the released RA (FIG. 23B). […] The gene expression was analyzed by Real-time PCR technique."}, "[2]": {"test_system": "STZ-induced diabetic rat model", "assay": "Insulin delivery from hydrogels in diabetic rats", "procedure": "The functional amyloid hydrogel encapsulated with insulin (5 mg/ml) was administered subcutaneously to the diabetic rat model. Blood samples were collected from the tail veins of rats prior to drug administration and at different time intervals after dosing. Diabetes model rats were fasted for 12 h prior to and remained fasted during the experiment, but were allowed water ad libitum. The blood glucose level was checked biochemically at regular interval. The insulin released from the hydrogel in vivo was also monitored. To do that, blood samples were centrifuged (10,000 rpm, 4° C. for 15 min) and subsequently quantified using an appropriate insulin ELISA kit and during various time intervals."}, "MCF7 spheroids [3]": {"test_system": "MCF7 spheroids", "assay": "MTT cytotoxicity of chemotherapeutic drugs on spheroids versus 2D culture", "format": "cell-based", "details": "0-14 μM, 24 h", "procedure": "Cytotoxicity assays by MIT: MCF7 spheroids were cultured for five days in DMEM (Dulbecco's modified Eagle's medium) with 10% FBS, in a 5% CO2 incubator at 37° C. followed by treatment with different chemotherapeutics drugs (0-14 μM) for 24 h. For control, media containing buffer. After 24 h of incubation, 10 μl of MTT solution (5 mg/ml prepared in PBS) was added to each well and incubated for 4 h. Subsequently, 100 μl of SDS-DMF solution (50% DMF and 20% SDS, pH 4.75) were added and kept for overnight incubation. The absorption values at 560 nm and 690 nm (background absorbance) were determined using a SpectraMax M2e microplate reader (Molecular Devices, USA). The cell viability was plotted as percentage cell viability by considering 100% viability for the buffer control (FIG. 18 A).\nDense spheroids tended to show relative resistance to all these five chemotherapeutic drugs in the 3D-culture as compared to this resistance in 2D. […] These findings confirm that the formation of dense spheroids in 3D-culture plays a role in determining the sensitivity of the cell lines to these chemotherapeutic drugs. […] 3D, geometrical difference can have far-reaching impacts in terms of understanding physiological response."}, "MCF7 spheroids [4]": {"test_system": "MCF7 spheroids", "assay": "Fluorescence live/dead study of drug effect on 2D versus 3D", "format": "cell-based", "details": "24 h", "procedure": "Fluorescence study was also performed to observe the effect of drug on 2D versus 3D. Here, after maturation of spheroids i.e., 5 days of culture on gel 4, different dose of paclitaxel (2-10 μM) was added for 24 h. To assess the effect of drug, cell viability was observed by staining through calcein AM and ethidium homodimer-1. Images were captured after incubation with dyes for 1 h. […] On the other hand, at the concentration of 4 μM, 70% of the cells for 2D are dead for the drug paclitaxel (FIG. 18 B)."}, "MDA-MB-231 cells": {"test_system": "MDA-MB-231 cells", "assay": "Efficacy of DOX released from hydrogels (MTT, Annexin-PI FACS)", "format": "cell-based", "procedure": "MDA-MB-231, breast cancer cell line was used for determining the efficacy of DOX release. To do so, MDA-MB-231 cells were grown on the DOX encapsulated hydrogels at a density of 2×10000 and cultured in complete DMEM media for 24 hrs. After 24 hrs, the cell morphology was imaged and the viability was then quantified using 3-(4,5-dimethylthiazol-2-yl)-2,5-diphenyl tetrazolium bromide (MTT) assay. FIG. 22A phase contrast images of MDA-MB-231 cells treated with DOX encapsulated hydrogels. […] For FACS analysis, MDAMB-231 cells were seeded on the hydrogel in the density 50,000 cells/well and allowed to grow for 24 hrs. Following the incubation, the cells were trypsinized and harvested in an eppendorf. The cell pellet was obtained by centrifugation and was resuspended in binding buffer. The percentage of apoptotic cells were measured by Annexin-PI staining method. 2 μl each of Annexin and PI was added to the resuspended cells and incubated for 5 mins before acquiring the results using FACS. […] To determine the efficacy of RA released from the hydrogel, SH-SY5Y neuroblastoma cells were seeded on hydrogel encapsulated with and without RA at a density of 1×10^4 and cultured in complete DMEM media. […] After 48 hrs, the morphology of these cells was analyzed by phase contrast images (FIG. 23A) and the cell shape was quantified by circularity using Image J software (FIG. 23C)."}}, "note": "Where a SMILES comes first, the peptide text is derived from it. The star is where a group is joined. Fmoc = O=C(OCC1c2ccccc2-c2ccccc21)*"}
{"compound": "CC[C@H](C)[C@H](NC(=O)[C@H](CCC(=O)O)NC(=O)[C@H](CCSC)NC(=O)[C@H](CC(C)C)NC(=O)[C@H](CCCCN)NC(=O)OCC1c2ccccc2-c2ccccc21)C(=O)O", "note": "[FA1, KLMEI] (Fmoc-KLMEI-OH; N-terminus and C-terminus assumed)", "values": [{"measurement": "viability at 24 h, 5000 µg/mL", "setting": "[1]", "result": "> 80", "unit": "%"}]}
{"compound": "CC1=C(/C=C/C(C)=C/C=C/C(C)=C/C(=O)O)C(C)(C)CCC1", "note": "[RA, trans-retinoic acid]", "values": [{"measurement": "differentiation of cells", "setting": "SH-SY5Y cells", "result": "induced differentiation of SH-SY5Y cells towards neuronal lineage"}]}
{"compound": "insulin", "values": [{"measurement": "blood sugar level", "setting": "[2]; insulin encapsulated in the hydrogels, subcutaneously injected", "result": "100 to 120", "unit": "mg/dL"}, {"measurement": "time blood glucose level maintained after administration", "setting": "[2]; only insulin control", "result": "≤ 6", "unit": "h"}, {"measurement": "time serum insulin level maintained after administration", "setting": "[2]; only insulin control", "result": "≤ 6", "unit": "h"}]}
{"compound": "CC[C@H](C)[C@H](NC(=O)[C@H](CC(=O)O)NC(=O)[C@H](CC(C)C)NC(=O)[C@H](CC(C)C)NC(=O)[C@H](CCCCN)NC(=O)OCC1c2ccccc2-c2ccccc21)C(=O)O", "note": "[FA2, KLLDI] (Fmoc-KLLDI-OH; N-terminus and C-terminus assumed)", "values": [{"measurement": "viability at 24 h, 5000 µg/mL", "setting": "[1]", "result": "> 80", "unit": "%"}]}
{"compound": "CC(C)C[C@H](NC(=O)[C@@H](NC(=O)[C@@H](NC(=O)[C@H](C)NC(=O)OCC1c2ccccc2-c2ccccc21)C(C)C)C(C)C)C(=O)N[C@@H](CO)C(=O)O", "note": "[FA3, AVVLS] (Fmoc-AVVLS-OH; N-terminus and C-terminus assumed)", "values": [{"measurement": "viability at 24 h, 5000 µg/mL", "setting": "[1]", "result": "> 80", "unit": "%"}]}
{"compound": "O=c1[nH]cc(F)c(=O)[nH]1", "note": "[5FU]", "values": [{"measurement": "death in 3D", "setting": "MCF7 spheroids [3]", "result": "more death in 3D as compared to other drugs"}]}
{"compound": "CC(=O)O[C@H]1C(=O)[C@@]2(C)[C@H]([C@H](OC(=O)c3ccccc3)[C@]3(O)C[C@H](OC(=O)[C@H](O)[C@@H](NC(=O)c4ccccc4)c4ccccc4)C(C)=C1C3(C)C)[C@]1(OC(C)=O)CO[C@@H]1C[C@@H]2O", "note": "[paclitaxel]", "values": [{"measurement": "cells dead in 2D", "setting": "MCF7 spheroids [4]; 4 μM, calcein AM / ethidium homodimer-1", "result": 70, "unit": "%"}, {"measurement": "resistance 3D versus 2D", "setting": "MCF7 spheroids [4]; 2-10 μM, spheroids 5 days on gel 4", "result": "3D are more resistant than 2D"}]}
{"compound": "COc1cccc2c1C(=O)c1c(O)c3c(c(O)c1C2=O)C[C@@](O)(C(=O)CO)C[C@@H]3O[C@H]1C[C@H](N)[C@H](O)[C@H](C)O1", "note": "[DOX, doxorubicin]", "values": [{"measurement": "change in cell viability (FACS, Annexin-PI)", "setting": "MDA-MB-231 cells; DOX encapsulated in the hydrogels, 24 hrs", "result": "decrease in cell viability"}, {"measurement": "cancer cell death", "setting": "MDA-MB-231 cells; DOX released from DOX encapsulated hydrogels", "result": "~70", "unit": "%"}]}
